Measurements reported in article PMC11314561, “Design and Synthesis of Novel Aminoindazole-pyrrolo[2,3-b]pyridine Inhibitors of IKKα That Selectively Perturb Cellular Non-Canonical NF-κB Signalling” (Molecules, 2024).

Experiments:
Test in all cases: kinase panel
Format in all cases: biochemical
NEK3(h) = NEK3(h) (Homo sapiens, UniProt P51956)
In short: (§1)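 Values are percent inhibition from kinome-wide profiling of three series compounds across 231 kinases, with a structurally similar analogue tested on only 98 selected kinases.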

Ros(h) = Ros(h) (Homo sapiens, UniProt P08922)
Chain of Ros(h) (P08922 28-2347): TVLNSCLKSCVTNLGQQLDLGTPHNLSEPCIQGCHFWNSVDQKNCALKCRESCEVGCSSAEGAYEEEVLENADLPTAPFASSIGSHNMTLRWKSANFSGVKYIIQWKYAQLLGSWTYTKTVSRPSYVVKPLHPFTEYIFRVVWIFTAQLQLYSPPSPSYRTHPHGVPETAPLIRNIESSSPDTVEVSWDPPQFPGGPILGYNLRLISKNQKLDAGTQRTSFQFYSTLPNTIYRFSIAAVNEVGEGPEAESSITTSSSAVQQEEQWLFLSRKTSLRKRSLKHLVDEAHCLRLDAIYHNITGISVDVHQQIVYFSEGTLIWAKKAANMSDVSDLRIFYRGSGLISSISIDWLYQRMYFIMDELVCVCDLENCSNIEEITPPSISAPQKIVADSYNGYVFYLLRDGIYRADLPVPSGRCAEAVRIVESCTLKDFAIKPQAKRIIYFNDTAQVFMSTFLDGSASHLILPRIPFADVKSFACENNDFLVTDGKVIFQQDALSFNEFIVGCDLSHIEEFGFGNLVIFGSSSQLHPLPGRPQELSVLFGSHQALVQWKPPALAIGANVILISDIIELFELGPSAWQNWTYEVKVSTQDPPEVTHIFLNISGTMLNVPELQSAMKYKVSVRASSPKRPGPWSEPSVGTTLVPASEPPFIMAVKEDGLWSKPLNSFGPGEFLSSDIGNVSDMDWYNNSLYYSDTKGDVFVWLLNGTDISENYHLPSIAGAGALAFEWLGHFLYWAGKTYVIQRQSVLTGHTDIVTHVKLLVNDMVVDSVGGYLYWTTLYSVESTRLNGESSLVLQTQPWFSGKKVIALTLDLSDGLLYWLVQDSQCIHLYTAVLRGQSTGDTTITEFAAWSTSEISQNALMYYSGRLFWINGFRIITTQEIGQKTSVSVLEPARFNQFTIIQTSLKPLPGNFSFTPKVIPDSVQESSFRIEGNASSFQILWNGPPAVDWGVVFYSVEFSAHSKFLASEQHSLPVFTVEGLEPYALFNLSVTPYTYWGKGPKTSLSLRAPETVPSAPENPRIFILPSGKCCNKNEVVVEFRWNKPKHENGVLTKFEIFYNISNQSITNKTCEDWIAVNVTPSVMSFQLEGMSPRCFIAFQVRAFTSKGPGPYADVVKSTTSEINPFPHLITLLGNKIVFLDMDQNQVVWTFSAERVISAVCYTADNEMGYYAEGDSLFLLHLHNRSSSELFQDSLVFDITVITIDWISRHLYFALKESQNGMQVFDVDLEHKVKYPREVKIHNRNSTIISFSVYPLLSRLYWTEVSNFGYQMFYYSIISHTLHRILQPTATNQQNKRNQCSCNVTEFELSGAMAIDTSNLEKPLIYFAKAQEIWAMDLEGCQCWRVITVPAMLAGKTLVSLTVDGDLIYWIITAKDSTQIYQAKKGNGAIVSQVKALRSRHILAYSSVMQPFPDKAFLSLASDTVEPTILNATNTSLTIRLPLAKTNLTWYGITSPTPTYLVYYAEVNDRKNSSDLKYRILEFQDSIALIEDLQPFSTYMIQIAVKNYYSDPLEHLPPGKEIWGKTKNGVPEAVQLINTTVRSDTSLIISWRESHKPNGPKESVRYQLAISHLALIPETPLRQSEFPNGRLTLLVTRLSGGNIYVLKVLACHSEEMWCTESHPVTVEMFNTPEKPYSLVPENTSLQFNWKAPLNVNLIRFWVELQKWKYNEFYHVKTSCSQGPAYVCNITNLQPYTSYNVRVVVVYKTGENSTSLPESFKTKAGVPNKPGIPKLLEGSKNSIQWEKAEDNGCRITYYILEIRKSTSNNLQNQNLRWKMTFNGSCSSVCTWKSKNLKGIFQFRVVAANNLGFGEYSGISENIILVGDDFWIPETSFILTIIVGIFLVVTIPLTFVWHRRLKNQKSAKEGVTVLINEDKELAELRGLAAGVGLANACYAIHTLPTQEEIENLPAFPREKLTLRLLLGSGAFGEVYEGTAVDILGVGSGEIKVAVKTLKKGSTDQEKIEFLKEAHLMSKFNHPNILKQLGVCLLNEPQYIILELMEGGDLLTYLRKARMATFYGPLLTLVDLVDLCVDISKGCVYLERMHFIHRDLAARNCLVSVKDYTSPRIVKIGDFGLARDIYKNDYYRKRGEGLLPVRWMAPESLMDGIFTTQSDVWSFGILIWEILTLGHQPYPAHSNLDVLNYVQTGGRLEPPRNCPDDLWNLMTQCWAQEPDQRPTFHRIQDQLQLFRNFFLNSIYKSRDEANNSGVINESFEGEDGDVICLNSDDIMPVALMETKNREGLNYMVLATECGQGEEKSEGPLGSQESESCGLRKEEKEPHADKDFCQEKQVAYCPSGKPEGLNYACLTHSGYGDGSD
In short: as §1

SRPK2(h) = SRPK2(h) (Homo sapiens, UniProt P78362)
In short: as §1

MRCKα(h) = MRCKα(h) (Homo sapiens, UniProt Q5VT25)
In short: as §1

eEF-2K(h) = eEF-2K(h) (Homo sapiens, UniProt O00418)
In short: as §1

PAK5(h) = PAK5(h) (Homo sapiens, UniProt Q9P286)
In short: as §1

TAO3(h) = TAO3(h) (Homo sapiens, UniProt Q9H2K8)
In short: as §1

cKit(h) = cKit(h) (Homo sapiens, UniProt P10721)
In short: as §1

JNK2α2(h) = JNK2α2(h) (Homo sapiens, UniProt P45984)
Chain of JNK2α2(h) (P45984 whole entry): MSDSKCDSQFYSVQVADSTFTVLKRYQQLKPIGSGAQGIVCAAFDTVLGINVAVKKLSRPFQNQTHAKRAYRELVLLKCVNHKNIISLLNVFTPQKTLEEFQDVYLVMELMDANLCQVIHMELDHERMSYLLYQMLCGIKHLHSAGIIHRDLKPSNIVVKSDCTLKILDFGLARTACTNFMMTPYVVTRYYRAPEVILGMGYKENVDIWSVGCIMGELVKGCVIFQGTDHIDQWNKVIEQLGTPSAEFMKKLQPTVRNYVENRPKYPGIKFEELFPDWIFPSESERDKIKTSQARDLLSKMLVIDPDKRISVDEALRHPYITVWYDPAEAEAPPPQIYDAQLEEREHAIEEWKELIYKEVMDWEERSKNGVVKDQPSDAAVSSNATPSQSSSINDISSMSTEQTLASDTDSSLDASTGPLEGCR
In short: as §1

MST3(h) = MST3(h) (Homo sapiens, UniProt Q9Y6E0)
In short: as §1

Txk(h) = Txk(h) (Homo sapiens, UniProt P42681)
In short: as §1

VRK2(h) = VRK2(h) (Homo sapiens, UniProt Q86Y07)
In short: as §1

PKCθ(h) = PKCθ(h) (Homo sapiens, UniProt Q04759)
In short: as §1

Hck(h) activated = Hck(h) activated (Homo sapiens, UniProt P08631)
In short: as §1

Pyk2(h) = Pyk2(h) (Homo sapiens, UniProt Q14289)
In short: as §1

CK1γ2(h) = CK1γ2(h) (Homo sapiens, UniProt P78368)
In short: as §1

PTK5(h) = PTK5(h) (Homo sapiens, UniProt P42685)
In short: as §1

EphB3(h) = EphB3(h) (Homo sapiens, UniProt P54753)
Chain of EphB3(h) (P54753 34-998): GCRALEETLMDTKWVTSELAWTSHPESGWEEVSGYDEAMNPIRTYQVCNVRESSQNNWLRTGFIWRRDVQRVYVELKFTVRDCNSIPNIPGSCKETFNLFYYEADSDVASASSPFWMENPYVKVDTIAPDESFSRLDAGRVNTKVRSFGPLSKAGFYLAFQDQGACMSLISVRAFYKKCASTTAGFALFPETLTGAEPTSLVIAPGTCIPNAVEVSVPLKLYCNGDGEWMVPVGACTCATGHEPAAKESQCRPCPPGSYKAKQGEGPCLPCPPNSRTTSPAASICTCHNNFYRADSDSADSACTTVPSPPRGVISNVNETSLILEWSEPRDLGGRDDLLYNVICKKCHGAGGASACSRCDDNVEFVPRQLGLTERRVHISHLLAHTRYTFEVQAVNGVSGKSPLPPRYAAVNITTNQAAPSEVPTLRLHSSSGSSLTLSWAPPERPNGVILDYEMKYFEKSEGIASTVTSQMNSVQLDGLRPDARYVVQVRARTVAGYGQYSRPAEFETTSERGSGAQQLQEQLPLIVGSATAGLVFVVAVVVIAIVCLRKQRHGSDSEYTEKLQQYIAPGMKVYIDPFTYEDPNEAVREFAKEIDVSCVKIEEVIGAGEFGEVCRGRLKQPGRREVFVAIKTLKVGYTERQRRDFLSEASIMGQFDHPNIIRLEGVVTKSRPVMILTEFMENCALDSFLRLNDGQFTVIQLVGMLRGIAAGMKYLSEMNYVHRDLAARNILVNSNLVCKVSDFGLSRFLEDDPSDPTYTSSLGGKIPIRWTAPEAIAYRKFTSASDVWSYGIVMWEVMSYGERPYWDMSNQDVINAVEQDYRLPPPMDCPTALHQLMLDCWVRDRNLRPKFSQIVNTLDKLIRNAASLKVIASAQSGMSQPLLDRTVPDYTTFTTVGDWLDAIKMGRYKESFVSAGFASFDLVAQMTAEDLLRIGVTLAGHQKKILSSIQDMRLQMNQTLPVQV
In short: as §1

DAPK2(h) = DAPK2(h) (Homo sapiens, UniProt Q9UIK4)
In short: as §1

TSSK2(h) = TSSK2(h) (Homo sapiens, UniProt Q96PF2)
In short: as §1

EphA3(h) = EphA3(h) (Homo sapiens, UniProt P29320)
Chain of EphA3(h) (P29320 21-983): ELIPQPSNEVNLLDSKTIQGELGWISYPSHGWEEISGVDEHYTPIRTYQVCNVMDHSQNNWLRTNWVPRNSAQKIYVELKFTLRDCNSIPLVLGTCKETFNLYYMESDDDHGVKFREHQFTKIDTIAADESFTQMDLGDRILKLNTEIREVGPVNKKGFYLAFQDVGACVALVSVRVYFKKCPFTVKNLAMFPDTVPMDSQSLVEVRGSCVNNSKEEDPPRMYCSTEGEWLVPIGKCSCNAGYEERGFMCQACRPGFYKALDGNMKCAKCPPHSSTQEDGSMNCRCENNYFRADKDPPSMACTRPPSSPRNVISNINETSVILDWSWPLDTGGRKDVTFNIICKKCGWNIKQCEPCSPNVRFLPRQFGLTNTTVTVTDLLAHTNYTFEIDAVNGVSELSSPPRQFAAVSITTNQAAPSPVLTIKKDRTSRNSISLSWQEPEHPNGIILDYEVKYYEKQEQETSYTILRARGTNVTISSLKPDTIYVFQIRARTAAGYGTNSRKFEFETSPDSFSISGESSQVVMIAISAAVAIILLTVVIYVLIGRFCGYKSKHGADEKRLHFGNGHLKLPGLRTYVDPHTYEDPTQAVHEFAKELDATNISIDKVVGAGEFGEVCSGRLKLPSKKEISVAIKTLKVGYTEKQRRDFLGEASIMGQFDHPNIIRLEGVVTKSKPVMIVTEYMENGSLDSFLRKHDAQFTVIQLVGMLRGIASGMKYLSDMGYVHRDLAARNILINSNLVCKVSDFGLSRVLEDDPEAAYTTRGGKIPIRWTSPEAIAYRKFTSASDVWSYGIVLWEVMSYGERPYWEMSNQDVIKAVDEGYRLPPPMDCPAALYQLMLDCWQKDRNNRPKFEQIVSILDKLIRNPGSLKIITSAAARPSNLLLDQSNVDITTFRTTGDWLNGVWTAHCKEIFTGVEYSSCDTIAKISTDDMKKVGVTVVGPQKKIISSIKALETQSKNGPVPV
In short: as §1

Mnk2(h) = Mnk2(h) (Homo sapiens, UniProt Q9HBH9)
In short: as §1

Fyn(h) = Fyn(h) (Homo sapiens, UniProt P06241)
In short: as §1

Axl(h) = Axl(h) (Homo sapiens, UniProt P30530)
In short: as §1

SGK2(h) = SGK2(h) (Homo sapiens, UniProt Q9HBY8)
In short: as §1

PKCγ(h) = PKCγ(h) (Homo sapiens, UniProt P05129)
In short: as §1

PKCζ(h) = PKCζ(h) (Homo sapiens, UniProt Q05513)
In short: as §1

Ron(h) = Ron(h) (Homo sapiens, UniProt Q04912)
In short: as §1

RIPK2(h) = RIPK2(h) (Homo sapiens, UniProt O43353)
In short: as §1

IGF-1R(h) = IGF-1R(h) (Homo sapiens, UniProt P08069)
In short: as §1

MST1(h) = MST1(h) (Homo sapiens, UniProt Q13043)
In short: as §1

MLK1(h) = MLK1(h) (Homo sapiens, UniProt P80192)
In short: as §1

MKK6(h) = MKK6(h) (Homo sapiens, UniProt P52564)
Chain of MKK6(h) (P52564 whole entry): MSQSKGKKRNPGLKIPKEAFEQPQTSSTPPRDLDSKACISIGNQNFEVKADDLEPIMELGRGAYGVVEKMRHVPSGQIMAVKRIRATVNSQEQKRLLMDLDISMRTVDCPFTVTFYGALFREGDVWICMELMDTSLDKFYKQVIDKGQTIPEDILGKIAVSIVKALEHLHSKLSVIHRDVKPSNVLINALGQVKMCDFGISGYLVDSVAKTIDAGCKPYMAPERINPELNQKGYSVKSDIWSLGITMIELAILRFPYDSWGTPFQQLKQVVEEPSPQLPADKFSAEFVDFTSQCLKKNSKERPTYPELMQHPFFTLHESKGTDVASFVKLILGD
In short: as §1

Rsk3(h) = Rsk3(h) (Homo sapiens, UniProt Q15349)
In short: as §1

Rsk4(h) = Rsk4(h) (Homo sapiens, UniProt Q9UK32)
In short: as §1

PKBγ(h) = PKBγ(h) (Homo sapiens, UniProt Q9Y243)
In short: as §1

BrSK2(h) = BrSK2(h) (Homo sapiens, UniProt Q8IWQ3)
In short: as §1

Rsk2(h) = Rsk2(h) (Homo sapiens, UniProt P51812)
In short: as §1

SRPK1(h) = SRPK1(h) (Homo sapiens, UniProt Q96SB4)
In short: as §1

PKCι(h) = PKCι(h) (Homo sapiens, UniProt P41743)
In short: as §1

WNK3(h) = WNK3(h) (Homo sapiens, UniProt Q9BYP7)
In short: as §1

Hck(h) = Hck(h) (Homo sapiens, UniProt P08631)
In short: as §1

## Nc1n[nH]c2ccc(-c3ccnc4[nH]c(-c5cccc(OCc6ccccc6)c5)cc34)cc12 [Compound 5r [SU1261]]
NEK3(h)
  inhibition at 1 µM: -14%
Ros(h)
  inhibition at 1 µM: 11%
SRPK2(h)
  inhibition at 1 µM: -7%
MRCKα(h)
  inhibition at 1 µM: -18%
eEF-2K(h)
  inhibition at 1 µM: -7%
PAK5(h)
  inhibition at 1 µM: 10%
TAO3(h)
  inhibition at 1 µM: 4%
cKit(h)
  inhibition at 1 µM: 9%
JNK2α2(h)
  inhibition at 1 µM: -6%
MST3(h)
  inhibition at 1 µM: -3%
Txk(h)
  inhibition at 1 µM: 27%
VRK2(h)
  inhibition at 1 µM: -11%
PKCθ(h)
  inhibition at 1 µM: -14%
Hck(h) activated
  inhibition at 1 µM: 22%
Pyk2(h)
  inhibition at 1 µM: 22%
CK1γ2(h)
  inhibition at 1 µM: 28%
PTK5(h)
  inhibition at 1 µM: 29%
EphB3(h)
  inhibition at 1 µM: -4%
DAPK2(h)
  inhibition at 1 µM: 13%
TSSK2(h)
  inhibition at 1 µM: -9%
EphA3(h)
  inhibition at 1 µM: 0%
Mnk2(h)
  inhibition at 1 µM: 26%
Fyn(h)
  inhibition at 1 µM: 33%
Axl(h)
  inhibition at 1 µM: 9%
SGK2(h)
  inhibition at 1 µM: 30%
PKCγ(h)
  inhibition at 1 µM: -2%
PKCζ(h)
  inhibition at 1 µM: 4%
Ron(h)
  inhibition at 1 µM: 7%
RIPK2(h)
  inhibition at 1 µM: 19%
IGF-1R(h)
  inhibition at 1 µM: 14%
MST1(h)
  inhibition at 1 µM: 4%
MLK1(h)
  inhibition at 1 µM: 56%
MKK6(h)
  inhibition at 1 µM: 2%
Rsk3(h)
  inhibition at 1 µM: 27%
Rsk4(h)
  inhibition at 1 µM: 4%
PKBγ(h)
  inhibition at 1 µM: 0%
BrSK2(h)
  inhibition at 1 µM: 9%
Rsk2(h)
  inhibition at 1 µM: 0%
SRPK1(h)
  inhibition at 1 µM: 7%
PKCι(h)
  inhibition at 1 µM: -10%
WNK3(h)
  inhibition at 1 µM: 17%
Hck(h)
  inhibition at 1 µM: 16%

## Nc1n[nH]c2ccc(-c3ccnc4[nH]c(-c5ccccc5)cc34)cc12 [Compound 4]
NEK3(h)
  inhibition at 1 µM: 0%
Ros(h)
  inhibition at 1 µM: 16%
SRPK2(h)
  inhibition at 1 µM: -5%
MRCKα(h)
  inhibition at 1 µM: -22%
eEF-2K(h)
  inhibition at 1 µM: 0%
PAK5(h)
  inhibition at 1 µM: 16%
TAO3(h)
  inhibition at 1 µM: 36%
cKit(h)
  inhibition at 1 µM: 51%
JNK2α2(h)
  inhibition at 1 µM: 22%
MST3(h)
  inhibition at 1 µM: 6%
Txk(h)
  inhibition at 1 µM: 43%
VRK2(h)
  inhibition at 1 µM: 0%
PKCθ(h)
  inhibition at 1 µM: 6%
Hck(h) activated
  inhibition at 1 µM: 38%
Pyk2(h)
  inhibition at 1 µM: 63%
CK1γ2(h)
  inhibition at 1 µM: 49%
PTK5(h)
  inhibition at 1 µM: 74%
EphB3(h)
  inhibition at 1 µM: 8%
DAPK2(h)
  inhibition at 1 µM: 2%
TSSK2(h)
  inhibition at 1 µM: -9%
EphA3(h)
  inhibition at 1 µM: 19%
Mnk2(h)
  inhibition at 1 µM: 67%
Fyn(h)
  inhibition at 1 µM: 64%
Axl(h)
  inhibition at 1 µM: 55%
SGK2(h)
  inhibition at 1 µM: 44%
PKCγ(h)
  inhibition at 1 µM: -5%
PKCζ(h)
  inhibition at 1 µM: -1%
Ron(h)
  inhibition at 1 µM: 53%
RIPK2(h)
  inhibition at 1 µM: 54%
IGF-1R(h)
  inhibition at 1 µM: 64%
MST1(h)
  inhibition at 1 µM: 33%
MLK1(h)
  inhibition at 1 µM: 79%
MKK6(h)
  inhibition at 1 µM: 17%
Rsk3(h)
  inhibition at 1 µM: 53%
Rsk4(h)
  inhibition at 1 µM: 17%
PKBγ(h)
  inhibition at 1 µM: 12%
BrSK2(h)
  inhibition at 1 µM: 41%
Rsk2(h)
  inhibition at 1 µM: 28%
SRPK1(h)
  inhibition at 1 µM: 5%
PKCι(h)
  inhibition at 1 µM: 3%
WNK3(h)
  inhibition at 1 µM: 20%
Hck(h)
  inhibition at 1 µM: 21%
